Experimental data as given in patent US20250108142A1, “METHODS FOR TREATING LEAKAGE FROM A GASTROINTESTINAL SITE” (Ethicon, Inc., priority 2023, published 2025).

Assay: Release of ibuprofen from fibrin clot in an in vitro setting
Type: physicochemical
Description: Release of ibuprofen from fibrin clot in an in vitro setting: A similar procedure was applied for ibuprofen embedded in fibrin sealant and for PLGA-ibuprofen embedded in fibrin sealant. […] This step was repeated 15 times (days). The ibuprofen concentration was measured by its UV signature, that is, UV absorption at 221 nm.

With CC(C)Cc1ccc(C(C)C(=O)O)cc1 (stereo not shown) [Ibuprofen, ibuprofen] the release profile was “less than controlled manner”.
